Assay results: ChEMBL document CHEMBL5465560, “Selectivity Literature for EUbOPEN Chemogenomic Library” (2024)

Key:
[1] = molecular target: Serine/threonine-protein kinase SMG1 (Homo sapiens) (UniProt Q96Q15); assay: Selectivity interaction (Kinase panel (KiNativ target engagement assay in Jurkat cells)) EUB0001635a SMG1; type: cell-based; conditions: Selectivity number of off-targets 0.0, Selectivity number of targets 233.0, Source Knowledge https://www.sciencedirect.com/science/article/pii/S2451945619300674?via%3Dihub, at 1 µM
[2] = molecular target: Cyclin-dependent kinase 6 (Homo sapiens) (UniProt Q00534); assay: Selectivity interaction (Kinase panel (KiNativ target engagement assay in Jurkat cells)) EUB0001635a CDK6; type: cell-based; conditions: Selectivity number of off-targets 0.0, Selectivity number of targets 233.0, Source Knowledge https://www.sciencedirect.com/science/article/pii/S2451945619300674?via%3Dihub, at 1 µM
[3] = molecular target: Serine/threonine-protein kinase 38 (Homo sapiens) (UniProt Q15208); assay: Selectivity interaction (KinomeScan (DiscoverX)) EUB0000229b STK38; conditions: at 10 µM
[4] = molecular target: Histone-lysine N-methyltransferase KMT5B (Homo sapiens) (UniProt Q4FZB7); conditions: at 10 µM
[5] = molecular target: Cyclin-dependent kinase 11B (Homo sapiens) (UniProt P21127); assay: Selectivity interaction (KinomeScan (DiscoverX)) EUB0001079a CDK11B; conditions: at 1 µM
[6] = molecular target: Sigma intracellular receptor 2 (Homo sapiens) (UniProt Q5BJF2); assay: Selectivity interaction (GPCR panel (PDSP screen)) EUB0001079a TMEM97; conditions: at 10 µM
[7] = molecular target: Death-associated protein kinase 1 (Homo sapiens, UniProt P53355); assay: Selectivity interaction (Adapta Assay) EUB0001632a DAPK1; conditions: at 10 µM
Sequence of Death-associated protein kinase 1 (P53355 whole entry, looked up): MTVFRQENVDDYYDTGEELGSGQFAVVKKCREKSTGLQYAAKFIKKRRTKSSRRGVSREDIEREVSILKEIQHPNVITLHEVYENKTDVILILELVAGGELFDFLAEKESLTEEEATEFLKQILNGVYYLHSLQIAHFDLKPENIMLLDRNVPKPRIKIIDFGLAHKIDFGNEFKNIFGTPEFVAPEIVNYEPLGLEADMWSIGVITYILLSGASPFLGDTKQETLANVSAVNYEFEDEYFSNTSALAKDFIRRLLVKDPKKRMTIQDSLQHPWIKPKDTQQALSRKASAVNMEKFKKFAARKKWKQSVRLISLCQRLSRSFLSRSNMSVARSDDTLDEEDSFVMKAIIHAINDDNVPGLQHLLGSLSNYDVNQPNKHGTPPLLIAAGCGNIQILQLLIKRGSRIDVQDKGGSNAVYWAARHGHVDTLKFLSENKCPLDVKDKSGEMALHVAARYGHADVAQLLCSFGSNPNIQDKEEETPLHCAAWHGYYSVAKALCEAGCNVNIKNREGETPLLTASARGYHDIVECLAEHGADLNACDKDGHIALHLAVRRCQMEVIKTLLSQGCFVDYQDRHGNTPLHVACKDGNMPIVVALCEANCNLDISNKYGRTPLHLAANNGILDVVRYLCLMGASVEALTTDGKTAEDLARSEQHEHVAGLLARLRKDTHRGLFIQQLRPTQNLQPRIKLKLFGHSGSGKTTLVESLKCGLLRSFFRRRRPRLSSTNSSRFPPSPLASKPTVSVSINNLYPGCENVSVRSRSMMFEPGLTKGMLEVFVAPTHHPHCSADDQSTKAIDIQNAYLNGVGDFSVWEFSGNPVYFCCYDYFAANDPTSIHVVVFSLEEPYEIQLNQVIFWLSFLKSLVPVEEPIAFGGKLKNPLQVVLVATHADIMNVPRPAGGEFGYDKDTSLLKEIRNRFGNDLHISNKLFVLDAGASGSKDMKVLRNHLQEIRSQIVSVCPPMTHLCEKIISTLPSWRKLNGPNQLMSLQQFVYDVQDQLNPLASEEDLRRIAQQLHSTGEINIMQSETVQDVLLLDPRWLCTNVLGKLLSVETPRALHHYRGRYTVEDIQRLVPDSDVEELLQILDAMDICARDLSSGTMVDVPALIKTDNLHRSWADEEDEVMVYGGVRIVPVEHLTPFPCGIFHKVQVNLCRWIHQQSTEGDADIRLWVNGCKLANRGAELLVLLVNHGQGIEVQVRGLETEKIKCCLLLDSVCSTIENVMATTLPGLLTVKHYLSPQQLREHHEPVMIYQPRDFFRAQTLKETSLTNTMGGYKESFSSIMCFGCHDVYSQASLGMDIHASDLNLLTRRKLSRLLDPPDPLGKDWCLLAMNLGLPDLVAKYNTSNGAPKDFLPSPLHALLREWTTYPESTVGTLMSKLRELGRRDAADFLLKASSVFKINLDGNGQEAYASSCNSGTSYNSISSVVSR

[8] = molecular target: RAF proto-oncogene serine/threonine-protein kinase (Homo sapiens) (UniProt P04049); assay: Selectivity interaction (KinomeScan (DiscoverX)) EUB0000666a RAF1; conditions: at 10 µM
Sequence of RAF proto-oncogene serine/threonine-protein kinase (Homo sapiens) (P04049 whole entry): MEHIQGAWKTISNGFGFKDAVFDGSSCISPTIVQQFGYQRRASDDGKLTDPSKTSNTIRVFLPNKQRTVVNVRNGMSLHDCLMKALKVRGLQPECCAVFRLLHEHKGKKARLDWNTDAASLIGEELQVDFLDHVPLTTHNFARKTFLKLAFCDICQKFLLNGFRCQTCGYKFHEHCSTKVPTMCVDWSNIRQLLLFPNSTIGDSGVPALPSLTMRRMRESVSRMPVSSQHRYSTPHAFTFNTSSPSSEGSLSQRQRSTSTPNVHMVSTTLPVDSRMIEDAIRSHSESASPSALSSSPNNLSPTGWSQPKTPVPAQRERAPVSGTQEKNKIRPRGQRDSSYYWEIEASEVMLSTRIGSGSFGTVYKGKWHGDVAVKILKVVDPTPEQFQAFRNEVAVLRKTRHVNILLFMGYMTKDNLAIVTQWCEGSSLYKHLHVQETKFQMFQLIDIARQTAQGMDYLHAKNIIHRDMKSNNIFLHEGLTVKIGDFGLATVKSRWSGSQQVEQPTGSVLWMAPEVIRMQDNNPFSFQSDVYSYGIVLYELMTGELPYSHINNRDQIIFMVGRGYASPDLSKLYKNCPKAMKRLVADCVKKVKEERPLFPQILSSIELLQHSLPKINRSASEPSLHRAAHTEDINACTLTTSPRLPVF

[9] = molecular target: Insulin receptor-related protein (Homo sapiens) (UniProt P14616); conditions: at 10 µM
[10] = molecular target: T1, Muscarinic acetylcholine receptor M2 (Homo sapiens) (UniProt P08172); assay: Selectivity interaction (Panel of non-epigenetic targets (kinases, GPCRs, ion channels, and transporters, Eurofins) ) EUB0000271b CHRM2; conditions: at 1 µM
T1 sequence (whole entry): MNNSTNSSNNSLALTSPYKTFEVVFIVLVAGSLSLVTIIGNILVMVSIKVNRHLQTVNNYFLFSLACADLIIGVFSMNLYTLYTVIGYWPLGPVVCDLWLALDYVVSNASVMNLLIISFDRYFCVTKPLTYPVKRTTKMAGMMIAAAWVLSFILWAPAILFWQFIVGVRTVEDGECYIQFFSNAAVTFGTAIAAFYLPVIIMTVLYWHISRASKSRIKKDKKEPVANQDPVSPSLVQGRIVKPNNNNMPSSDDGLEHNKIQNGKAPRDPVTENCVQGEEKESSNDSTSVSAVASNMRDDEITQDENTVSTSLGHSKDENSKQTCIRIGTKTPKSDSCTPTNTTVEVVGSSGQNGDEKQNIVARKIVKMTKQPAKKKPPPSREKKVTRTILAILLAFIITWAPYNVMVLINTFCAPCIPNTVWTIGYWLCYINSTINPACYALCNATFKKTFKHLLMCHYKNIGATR

[11] = molecular target: Serine/threonine-protein kinase N1 (Homo sapiens, UniProt Q16512); assay: Selectivity interaction (ProQinase) EUB0000171b PKN1
Sequence of Serine/threonine-protein kinase N1 (Q16512 2-942 limits assumed): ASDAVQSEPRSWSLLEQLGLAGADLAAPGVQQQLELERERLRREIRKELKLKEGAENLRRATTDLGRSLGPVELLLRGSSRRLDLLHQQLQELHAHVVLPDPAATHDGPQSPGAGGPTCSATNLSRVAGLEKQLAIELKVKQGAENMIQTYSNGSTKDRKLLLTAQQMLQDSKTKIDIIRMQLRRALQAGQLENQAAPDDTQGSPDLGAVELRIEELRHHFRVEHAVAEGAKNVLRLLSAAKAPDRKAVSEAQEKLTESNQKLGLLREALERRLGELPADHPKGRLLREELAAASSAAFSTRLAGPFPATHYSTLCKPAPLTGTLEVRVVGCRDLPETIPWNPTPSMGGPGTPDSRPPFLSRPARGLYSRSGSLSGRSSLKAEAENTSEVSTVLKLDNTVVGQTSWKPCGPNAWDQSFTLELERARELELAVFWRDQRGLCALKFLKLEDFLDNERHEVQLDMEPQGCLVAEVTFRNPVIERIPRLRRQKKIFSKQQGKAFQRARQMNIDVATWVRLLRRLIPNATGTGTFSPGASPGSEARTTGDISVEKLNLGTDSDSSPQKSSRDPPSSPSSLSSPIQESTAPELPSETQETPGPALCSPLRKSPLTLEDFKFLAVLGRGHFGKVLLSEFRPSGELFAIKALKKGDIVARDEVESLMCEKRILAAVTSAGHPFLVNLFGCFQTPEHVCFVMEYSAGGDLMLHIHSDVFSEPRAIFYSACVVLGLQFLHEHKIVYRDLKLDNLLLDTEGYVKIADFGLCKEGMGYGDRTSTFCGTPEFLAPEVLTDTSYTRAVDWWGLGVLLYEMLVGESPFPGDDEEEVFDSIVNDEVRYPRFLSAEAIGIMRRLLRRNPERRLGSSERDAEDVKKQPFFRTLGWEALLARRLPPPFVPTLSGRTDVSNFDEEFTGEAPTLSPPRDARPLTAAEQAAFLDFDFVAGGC

[12] = molecular target: T2, Tyrosine-protein kinase Mer (Homo sapiens) (UniProt Q12866); assay: Selectivity interaction (ProQinase) EUB0000171b MERTK
T2 sequence (whole entry): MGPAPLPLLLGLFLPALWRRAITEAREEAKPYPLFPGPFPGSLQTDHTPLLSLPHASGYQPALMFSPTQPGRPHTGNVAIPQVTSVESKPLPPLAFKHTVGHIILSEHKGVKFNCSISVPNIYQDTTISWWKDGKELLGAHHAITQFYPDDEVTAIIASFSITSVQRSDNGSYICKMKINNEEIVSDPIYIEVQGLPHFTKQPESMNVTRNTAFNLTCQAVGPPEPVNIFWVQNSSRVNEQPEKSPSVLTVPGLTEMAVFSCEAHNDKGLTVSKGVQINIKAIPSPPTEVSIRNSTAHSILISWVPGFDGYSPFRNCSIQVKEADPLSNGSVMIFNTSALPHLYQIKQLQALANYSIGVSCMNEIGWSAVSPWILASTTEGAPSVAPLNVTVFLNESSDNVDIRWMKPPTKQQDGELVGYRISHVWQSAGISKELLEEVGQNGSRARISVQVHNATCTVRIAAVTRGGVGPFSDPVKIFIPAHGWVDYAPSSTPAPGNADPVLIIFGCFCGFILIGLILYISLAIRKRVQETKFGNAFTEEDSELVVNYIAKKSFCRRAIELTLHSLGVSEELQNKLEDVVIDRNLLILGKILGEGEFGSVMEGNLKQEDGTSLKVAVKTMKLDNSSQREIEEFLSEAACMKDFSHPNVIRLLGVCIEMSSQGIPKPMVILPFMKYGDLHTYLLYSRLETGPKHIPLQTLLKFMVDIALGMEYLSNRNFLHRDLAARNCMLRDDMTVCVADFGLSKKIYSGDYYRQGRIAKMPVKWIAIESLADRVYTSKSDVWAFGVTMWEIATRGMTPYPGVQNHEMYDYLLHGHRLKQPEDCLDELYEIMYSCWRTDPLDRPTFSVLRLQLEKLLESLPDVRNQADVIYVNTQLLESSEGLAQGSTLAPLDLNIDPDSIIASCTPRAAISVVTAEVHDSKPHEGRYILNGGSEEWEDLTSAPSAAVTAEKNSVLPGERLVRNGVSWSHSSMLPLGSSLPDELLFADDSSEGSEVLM

[13] = molecular target: Receptor tyrosine-protein kinase erbB-2 (Homo sapiens, UniProt P04626); assay: Selectivity interaction (KinomeScan (DiscoverX)) EUB0001619a ERBB2; conditions: at 1 µM
[14] = molecular target: T3, Tyrosine-protein kinase ABL2 (Homo sapiens, UniProt P42684); assay: Selectivity interaction (KinomeScan (DiscoverX)) EUB0000607a ABL2; conditions: at 10 µM
T3 sequence (P42684 whole entry): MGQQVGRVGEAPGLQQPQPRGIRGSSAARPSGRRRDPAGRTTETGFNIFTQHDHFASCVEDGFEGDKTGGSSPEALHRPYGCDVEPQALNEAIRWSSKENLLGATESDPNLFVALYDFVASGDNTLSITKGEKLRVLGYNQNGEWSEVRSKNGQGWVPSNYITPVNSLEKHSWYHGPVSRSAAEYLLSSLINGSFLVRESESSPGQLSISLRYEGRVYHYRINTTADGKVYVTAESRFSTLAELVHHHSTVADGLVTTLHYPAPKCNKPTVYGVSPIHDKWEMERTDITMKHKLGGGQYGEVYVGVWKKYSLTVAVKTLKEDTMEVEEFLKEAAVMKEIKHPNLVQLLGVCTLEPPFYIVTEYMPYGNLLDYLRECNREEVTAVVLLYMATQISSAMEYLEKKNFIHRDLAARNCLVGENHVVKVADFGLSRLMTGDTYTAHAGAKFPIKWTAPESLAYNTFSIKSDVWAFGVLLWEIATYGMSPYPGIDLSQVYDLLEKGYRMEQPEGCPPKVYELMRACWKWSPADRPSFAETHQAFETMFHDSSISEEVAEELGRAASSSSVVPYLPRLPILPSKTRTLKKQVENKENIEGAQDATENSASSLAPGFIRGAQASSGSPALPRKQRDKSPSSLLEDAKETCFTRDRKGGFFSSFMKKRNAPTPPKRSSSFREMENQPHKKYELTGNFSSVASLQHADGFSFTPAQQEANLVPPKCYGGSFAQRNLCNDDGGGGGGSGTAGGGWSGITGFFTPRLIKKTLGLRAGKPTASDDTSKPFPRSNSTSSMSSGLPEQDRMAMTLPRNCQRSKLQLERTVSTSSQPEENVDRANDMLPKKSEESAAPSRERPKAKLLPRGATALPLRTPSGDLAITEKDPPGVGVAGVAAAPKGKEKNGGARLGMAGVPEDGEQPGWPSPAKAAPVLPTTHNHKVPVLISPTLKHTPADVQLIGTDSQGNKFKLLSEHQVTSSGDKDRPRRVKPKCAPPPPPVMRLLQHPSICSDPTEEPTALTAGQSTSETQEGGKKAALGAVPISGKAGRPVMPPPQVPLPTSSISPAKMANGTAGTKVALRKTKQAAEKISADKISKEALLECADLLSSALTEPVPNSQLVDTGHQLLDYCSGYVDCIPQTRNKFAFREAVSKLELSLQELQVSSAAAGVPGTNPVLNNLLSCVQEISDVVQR

[15] = molecular target: Activin receptor type-2B (Homo sapiens) (UniProt Q13705); assay: Selectivity interaction (KinomeScan (DiscoverX)) EUB0000618a ACVR2B; conditions: at 10 µM
[16] = molecular target: Ribosomal protein S6 kinase alpha-1 (Homo sapiens, UniProt Q15418); assay: Selectivity interaction (ActivX KiNativ screen (kinase selectivity in THP-1 cell lysates)) EUB0000639a RPS6KA1; type: subcellular; conditions: lysate, at 5 µM
Sequence of Ribosomal protein S6 kinase alpha-1 (Q15418 whole entry): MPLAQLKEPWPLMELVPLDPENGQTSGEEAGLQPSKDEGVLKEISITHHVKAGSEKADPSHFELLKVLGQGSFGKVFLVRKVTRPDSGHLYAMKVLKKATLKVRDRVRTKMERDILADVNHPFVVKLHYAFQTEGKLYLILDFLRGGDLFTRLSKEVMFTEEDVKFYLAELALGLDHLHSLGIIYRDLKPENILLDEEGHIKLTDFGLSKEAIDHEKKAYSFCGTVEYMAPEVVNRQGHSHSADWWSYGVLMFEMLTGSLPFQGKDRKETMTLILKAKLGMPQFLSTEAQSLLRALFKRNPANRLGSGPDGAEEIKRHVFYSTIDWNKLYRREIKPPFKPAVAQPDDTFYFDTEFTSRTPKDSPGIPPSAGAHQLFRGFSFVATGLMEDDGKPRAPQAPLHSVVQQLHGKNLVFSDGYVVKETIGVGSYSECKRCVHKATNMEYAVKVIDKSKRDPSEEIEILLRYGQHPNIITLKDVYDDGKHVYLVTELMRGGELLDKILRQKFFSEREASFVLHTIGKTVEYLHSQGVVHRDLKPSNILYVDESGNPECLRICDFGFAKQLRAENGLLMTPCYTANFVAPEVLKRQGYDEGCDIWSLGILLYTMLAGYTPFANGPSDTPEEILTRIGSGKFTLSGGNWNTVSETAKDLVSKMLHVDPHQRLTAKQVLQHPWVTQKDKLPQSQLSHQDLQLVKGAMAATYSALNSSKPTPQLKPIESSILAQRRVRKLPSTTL

[17] = molecular target: T3, Tyrosine-protein kinase ABL2; assay: Selectivity interaction (ActivX KiNativ screen (kinase selectivity in THP-1 cell lysates)) EUB0000639a ABL2; type: subcellular; conditions: lysate, at 0.04 µM
[18] = molecular target: Cyclin-dependent kinase 14 (Homo sapiens) (UniProt O94921); assay: Selectivity interaction (ActivX KiNativ screen (kinase selectivity in THP-1 cell lysates)) EUB0000639a CDK14; type: subcellular; conditions: lysate, at 1 µM
[19] = molecular target: Myosin light chain kinase 2, skeletal/cardiac muscle (Homo sapiens) (UniProt Q9H1R3); assay: Selectivity interaction (KinomeScan (DiscoverX)) EUB0000655a MYLK2; conditions: at 10 µM

Compound: C=CC(=O)Nc1ccc(C(=O)Nc2[nH]nc3c2CN(C(=O)N[C@H](CN(C)C)c2ccccc2)C3(C)C)cc1
- % of engagement [1]: -6.6%
- % of engagement [2]: -8.6%

Compound: COc1cc(N(C)c2ccnc3ccc(C(F)(F)F)cc23)cc(OC)c1OC
- % binding [3]: 83%

Compound: CNCCN1CCC(c2cc(CN(C)C(=O)c3cccc(Oc4ccccc4)c3)ccn2)CC1
- % activity [4]: > 90%

Compound: Nc1cnc(N2CCc3cc(S(=O)(=O)Nc4c(F)cc(Cl)cc4F)cc(N4CCCC4=O)c32)nc1 [TP-020n]
- % of control [5]: 100%
- % of inhibition [6]: -12%

Compound: Cn1cc(-n2cnc3c(NCc4nc5cc(Cl)c(Cl)cc5[nH]4)nc(N4CCOCC4)nc32)cn1
- % of inhibition [7]: 34%

Compound: O=C(NOC[C@H](O)CO)c1ccc(F)c(F)c1Nc1ccc(I)cc1F
- % of control [8]: 99%

Compound: Cc1cc([C@@H](C)Nc2ccccc2C(=O)O)c2nc(N3CCOCC3)cc(=O)n2c1 [AZD-6482]
- % of control [9]: 100%

Compound: Cc1cc(C)cc([C@@H]2c3cc(C)ccc3NC(=O)CN2C(=O)c2ccc(Br)s2)c1
- % of inhibition [10]: -5%

Compound: C=CC(=O)Nc1cccc(C(=O)Nc2ccc(Nc3cc(-c4[nH]c(SC)nc4C)ccn3)cc2)c1
- % of control ([11]; at 1 µM): 100%
- % of control ([11]; at 5 µM): 91%
- % of control ([12]; at 1 µM): 76%
- % of control ([12]; at 5 µM): 41%

Compound: N#Cc1cccc(-c2c[nH]c3ncnc(N4CCOCC4)c23)c1
- % of control [13]: 73%

Compound: CNC(=O)Nc1ccc(-c2nc(N3CC4CCC(C3)O4)c3cnn(C4CCC5(CC4)OCCO5)c3n2)cc1
- % of control [14]: 84%

Compound: O[C@H]1CC[C@H](Nc2ncc3nc(Nc4c(F)cc(F)cc4F)n([C@H]4CCOC4)c3n2)CC1
- % of control [15]: 100%

Compound: CC[C@@H]1[C@H](F)C(=O)N[C@@H]1COc1nccc2cc(C(N)=O)c(OC)cc12 [ZIMLOVISERTIB]
- % of inhibition [16]: 21.5%
- % of inhibition [17]: -16.4%
- % of inhibition [18]: 1.6%

Compound: CN(C)CCOc1ccc(-c2nc(-c3ccncc3)c(-c3ccc4c(c3)CC/C4=N\O)[nH]2)cc1
- % of control [19]: 100%
